Values quoted from earlier work, collected in US8841297B2, “Phenylimidazole derivative as PDE10A enzyme inhibitor” (H. Lundbeck A/S, priority 2009, dated 2014).

Assays:
[1] = tested on: cataleptic effect of haloperidol; conditions: rats, cited from earlier work
[2] = tested on: PCP induced hyperactivity; conditions: rats; cited from earlier work
[3] = tested on: amphetamine induced hyperactivity; conditions: rats; cited from earlier work

COc1ccc(Cc2nccc3cc(OC)c(OC)cc23)cc1OC [Papaverine, papaverine]
catalepsy on its own ([1]; papaverine alone): did not cause catalepsy on its own | effect on the cataleptic effect of haloperidol ([1]; together with haloperidol): potentiated the cataleptic effect | effect on hyperactivity induced by PCP [2]: reduced hyperactivity | reduction of amphetamine induced hyperactivity [3]: insignificant
